# Reference: US8466181B2, “1,2,3-triazole-imidazole compounds” (Hoffmann-La Roche Inc., priority 2010, dated 2013)
# Target: T1, human GABA A receptor α5β3γ2 (GABA Aa5) (Homo sapiens, UniProt P18507+P31644)
# T1 construct: expressed in transfected cells; host or cells: HEK293 cells, transiently transfected; membranes prepared
# Assay: [3H]flumazenil competition binding, HEK293 cells expressing human receptors
# Conditions: displacement of [3H]flumazenil 0.5 nM; HEK293 transiently transfected human receptors; means of two determinations; read-out: hKi (GABA Aa5)
# Procedure: The ability of compounds present invention to bind to GABA A receptor subtypes was determined by competition for [^3H]flumazenil (85 Ci/mmol; Roche) binding to HEK293 cells expressing rat (stably transfected) or human (transiently transfected) receptors of composition α1β2/3γ2, α2β3γ2, α3β3γ2 and α5β3γ2.
# Cell pellets were suspended in Krebs-tris buffer (4.8 mM KCl, 1.2 mM CaCl2, 1.2 mM MgCl2, 120 mM NaCl, 15 mM Tris; pH 7.5; binding assay buffer), homogenized by polytron for ca. 20 sec on ice and centrifuged for 60 min at 4° C. (50000 g; Sorvall, rotor: SM24=20000 rpm). The cell pellets were resuspended in Krebs-tris buffer and homogenized by polytron for ca. 15 sec on ice. Protein was measured (Bradford method, Bio-Rad) and aliquots of 1 mL were prepared and stored at −80° C.
# Assays were incubated to equilibrium for 1 hour at 4° C. and harvested onto GF/C uni-filters (Packard) by filtration using a Packard harvester and washing with ice-cold wash buffer (50 mM Tris; pH 7.5). After drying, filter-retained radioactivity was detected by liquid scintillation counting.
# Ki values were calculated using Excel-Fit (Microsoft) and are the means of two determinations.
# Representative test results, obtained by the above described assay measuring binding affinity to HEK293 cells expressing human (h) receptors, are shown in Table 1 below.
row,Compound,Ki
1,"Cc1nnn(-c2ccc(F)cc2)c1-c1cn(-c2ccc(C(F)(F)F)cn2)cn1 [Example 34, 2-{4-[3-(4-Fluoro-phenyl)-5-methyl-3H-[1,2,3]triazol-4-yl]-imidazol-1-yl}-5-trifluoromethyl-pyridine]",45.6 nM
2,"COC(=O)c1ccc(-n2cnc(-c3c(C)nnn3-c3ccc(F)cc3)c2)nc1 [Example 35, Methyl 6-(4-(1-(4-fluorophenyl)-4-methyl-1H-1,2,3-triazol-5-yl)-1H-imidazol-1-yl)nicotinate]",26.3 nM
3,"Cc1nnn(-c2ccc(F)cc2)c1-c1cn(-c2ccc(C(=O)NC3CCOCC3)cn2)cn1 [Example 37, 6-{4-[3-(4-Fluoro-phenyl)-5-methyl-3H-[1,2,3]triazol-4-yl]-imidazol-1-yl}-N-(tetrahydropyran-4-yl)-nicotinamide]",25.9 nM
4,"Cc1nnn(-c2ccc(F)cc2)c1-c1cn(-c2ccc(C(=O)NC3(C)COC3)cn2)cn1 [Example 38, 6-(4-(1-(4-Fluorophenyl)-4-methyl-1H-1,2,3-triazol-5-yl)-1H-imidazol-1-yl)-N-(3-methyloxetan-3-yl)nicotinamide]",9.6 nM
5,"Cc1nnn(-c2ccc(F)cc2)c1-c1cn(-c2ccc(C(=O)N3CC4(COC4)C3)cn2)cn1 [Example 39, (6-(4-(1-(4-Fluorophenyl)-4-methyl-1H-1,2,3-triazol-5-yl)-1H-imidazol-1-yl)pyridin-3-yl)(2-oxa-6-azaspiro[3.3]heptan-6-yl)methanone]",35.8 nM
6,"Cc1nnn(-c2ccc(F)cc2)c1-c1cn(-c2ccc(C(N)=O)cn2)cn1 [Example 40, 6-(4-(1-(4-Fluorophenyl)-4-methyl-1H-1,2,3-triazol-5-yl)-1H-imidazol-1-yl)nicotinamide]",12.6 nM
7,"Cc1nnn(-c2ccc(F)cc2)c1-c1cn(-c2ccc(C(=O)NC(C)(C)CO)cn2)cn1 [Example 41, 6-(4-(1-(4-Fluorophenyl)-4-methyl-1H-1,2,3-triazol-5-yl)-1H-imidazol-1-yl)-N-(1-hydroxy-2-methylpropan-2-yl)nicotinamide]",20.8 nM
8,"Cc1nnn(-c2ccc(F)cc2)c1-c1cn(-c2ccc(C(=O)NC3CC3)cn2)cn1 [Example 42, N-Cyclopropyl-6-(4-(1-(4-fluorophenyl)-4-methyl-1H-1,2,3-triazol-5-yl)-1H-imidazol-1-yl)nicotinamide]",3.2 nM
9,"Cc1nnn(-c2ccccc2F)c1-c1cn(-c2ccc(C(=O)NC(C)C)cn2)cn1 [Example 43, 6-(4-(1-(2-Fluorophenyl)-4-methyl-1H-1,2,3-triazol-5-yl)-1H-imidazol-1-yl)-N-isopropylnicotinamide]",15.1 nM
10,"Cc1nnn(-c2ccc(F)cc2)c1-c1cn(-c2ccc(C(=O)N3CCS(=O)(=O)CC3)cn2)cn1 [Example 44, (1,1-Dioxo-1,6-thiomorpholin-4-yl)-(6-{4-[3-(4-fluoro-phenyl)-5-methyl-3H-[1,2,3]triazol-4-yl]-imidazol-1-yl}-pyridin-3-yl)-methanone]",29 nM
11,"Cc1nnn(-c2ccc(F)cc2)c1-c1cn(-c2ccc(C(=O)NN3CCOCC3)cn2)cn1 [Example 45, 6-(4-(1-(4-Fluorophenyl)-4-methyl-1H-1,2,3-triazol-5-yl)-1H-imidazol-1-yl)-N-morpholinonicotinamide]",69.4 nM
12,"Cc1nnn(-c2ccccc2F)c1-c1cn(-c2ccc(C(=O)NC3CCOCC3)cn2)cn1 [Example 46, 6-(4-(1-(2-Fluorophenyl)-4-methyl-1H-1,2,3-triazol-5-yl)-1H-imidazol-1-yl)-N-(tetrahydro-2H-pyran-4-yl)nicotinamide]",49 nM
13,"Cc1nnn(-c2ccccc2F)c1-c1cn(-c2ccc(C(=O)NC(C)(C)CO)cn2)cn1 [Example 47, 6-(4-(1-(2-Fluorophenyl)-4-methyl-1H-1,2,3-triazol-5-yl)-1H-imidazol-1-yl)-N-(1-hydroxy-2-methylpropan-2-yl)nicotinamide]",51.7 nM
14,"Cc1nnn(-c2ccccc2F)c1-c1cn(-c2ccc(C(N)=O)cn2)cn1 [Example 48, 6-(4-(1-(2-Fluorophenyl)-4-methyl-1H-1,2,3-triazol-5-yl)-1H-imidazol-1-yl)nicotinamide]",17.8 nM
15,"Cc1nnn(-c2ccccc2F)c1-c1cn(-c2ccc(C(=O)N3CC4(COC4)C3)cn2)cn1 [Example 49, (6-(4-(1-(2-Fluorophenyl)-4-methyl-1H-1,2,3-triazol-5-yl)-1H-imidazol-1-yl)pyridin-3-yl)(2-oxa-6-azaspiro[3.3]heptan-6-yl)methanone]",90 nM
16,"Cc1nnn(-c2ccccc2F)c1-c1cn(-c2ccc(C(=O)NC3(C)COC3)cn2)cn1 [Example 50, 6-(4-(1-(2-Fluorophenyl)-4-methyl-1H-1,2,3-triazol-5-yl)-1H-imidazol-1-yl)-N-(3-methyloxetan-3-yl)nicotinamide]",17.9 nM
17,"Cc1nnn(-c2ccccc2F)c1-c1cn(-c2ccc(C(=O)NN3CCOCC3)cn2)cn1 [Example 51, 6-(4-(1-(2-Fluorophenyl)-4-methyl-1H-1,2,3-triazol-5-yl)-1H-imidazol-1-yl)-N-morpholinonicotinamide]",50.5 nM
18,"Cc1nnn(-c2ccccc2F)c1-c1cn(-c2ccc(C(=O)NC3CC3)cn2)cn1 [Example 52, N-Cyclopropyl-6-(4-(1-(2-fluorophenyl)-4-methyl-1H-1,2,3-triazol-5-yl)-1H-imidazol-1-yl)nicotinamide]",10.9 nM
19,"Cc1nnn(-c2ccccc2F)c1-c1cn(-c2ccc(C(=O)NCC3CC3)cn2)cn1 [Example 53, N-(Cyclopropylmethyl)-6-(4-(1-(2-fluorophenyl)-4-methyl-1H-1,2,3-triazol-5-yl)-1H-imidazol-1-yl)nicotinamide]",32.7 nM
